Converted amounts (≈) assume the structure as drawn.

The test system of one assay is EHEC strain. In words: Antibiotic susceptibility of the EHEC strain. The format is cell-based, E. coli.
A further assay concerns EMG2 gyrAD87G. In words: MIC determination by broth microdilution. The format is cell-based, E. coli. To be noted: strain EMG2 gyrAD87G, LB broth; for MIC: Escherichia coli, read-out: Minimum Inhibitory Concentration (MIC). As for the experimental part:
(§1) MICs were determined by broth microdilution using LB broth according to the CLSI guidelines (Clinical and Laboratory Standards Institute. Methods for Dilution Antimicrobial Susceptibility Tests for Bacteria That Grow Aerobically; Approved Standard—Seventh Edition. 64 (2006)).

In the next assay the test system is EMG2 Wild-Type. In words: microbe, parasite or virus in culture. Type of assay: cell-based, E. coli. The note with it: strain EMG2 Wild-Type, LB broth; for MIC: Escherichia coli, read-out: Minimum Inhibitory Concentration (MIC). As for the experimental part:
as §1

Another assay has as its system EMG2 pSHV-18. In words: MIC determination by broth microdilution. The format is cell-based, E. coli. To be noted: strain EMG2 pSHV-18, LB broth; for MIC: Escherichia coli, read-out: Minimum Inhibitory Concentration (MIC). As for the experimental part: as §1
Background: Dilution methods test growth across graded concentrations, often in twofold steps.

In another assay the test system is EMG2 pNDM-1. In words: MIC determination by broth microdilution. To be noted: strain EMG2 pNDM-1, LB broth; for MIC: Escherichia coli, read-out: Minimum Inhibitory Concentration (MIC). Type of assay: cell-based, E. coli. The protocol: as §1
For the next assay, the system named is EHEC. In words: Galleria mellonella infection model, survival. The format is in vivo. To be noted: ΦRGNeae MOI ~30; chloramphenicol or carbenicillin 32 mg/kg; Log-rank p<0.05. As for the experimental part: Galleria mellonella larvae were injected with either PBS (uninfected) or approximately 4×10^5 colony forming units (CFU) of EHEC. […] Survival curves represent an aggregate of four independent experiments, each with 20 worms per treatment group (n=80). […] G. mellonella larvae (n=40) were injected with PBS or approximately 3×10^5 colony forming units (CFU) of EHEC. Larvae were subsequently treated with PBS, ΦRGNeae at MOI ˜30, chloramphenicol, or carbenicillin. The antibiotics were both applied at a concentration of 32 mg/kg, corresponding to the CLSI resistance breakpoints for Enterobacteriaceae (32 μg/mL).
Larvae of the model organism Galleria mellonella (Desbois, A. P. & Coote, P. J. Adv. Appl. Microbiol. 78, 25-53 (2012)) were purchased from Vanderhorst Wholesale, Inc. (St. Marys, Ohio, USA) and received in the final larval instar for survival assays. Larvae were removed from food source, allowed to acclimate for at least 24 h at room temperature in the dark, and used within 4 days of receipt. […] Larvae were incubated at 37° C. and survival was monitored at 12 hour intervals for 72 hours, with death indicated by lack of movement and unresponsiveness to touch (Desbois, A. P. & Coote, P. J. Adv. Appl. Microbiol. 78, 25-53 (2012)). Kaplan-Meier survival curves were generated on the data pooled from four independent experiments and analyzed with the log-rank test using GraphPad Prism.

As for `O=C(N[C@H](CO)[C@H](O)c1ccc([N+](=O)[O-])cc1)C(Cl)Cl` [chloramphenicol], the “susceptibility of EHEC strain” value with EHEC strain is given as “resistant”.
In the case of `CC1COc2c(N3CCN(C)CC3)c(F)cc3c(=O)c(C(=O)O)cn1c23` (stereo not shown) [OFX, ofloxacin], the figures for the MIC in the assay on EMG2 gyrAD87G and with EMG2 Wild-Type were 0.5 µg/mL (≈ 1.38 µM) and 0.125 µg/mL (≈ 0.346 µM), respectively.
As for `CO/N=C(\C(=O)N[C@@H]1C(=O)N2C(C(=O)O)=C(COC(C)=O)CS[C@H]12)c1csc(N)n1` [CTX, cefotaxime], the MIC was 0.25 µg/mL (≈ 0.549 µM) with EMG2 pSHV-18, not above 0.0625 µg/mL with EMG2 gyrAD87G, more than 64 µg/mL in the assay on EMG2 pNDM-1 and not above 0.0625 µg/mL with EMG2 Wild-Type.
Consider gentamicin, for which the “Minimum Inhibitory Concentration (MIC)” value with EMG2 pSHV-18 is more than 64 µg/mL; with EMG2 gyrAD87G, 4 µg/mL; in the assay on EMG2 pNDM-1, more than 64 µg/mL; in the assay on EMG2 Wild-Type, 4 µg/mL.
Take `CC(C)(O/N=C(\C(=O)N[C@@H]1C(=O)N2C(C(=O)[O-])=C(C[n+]3ccccc3)CS[C@H]12)c1csc(N)n1)C(=O)O` [CAZ, ceftazidime]: the MIC was 1 µg/mL (≈ 1.83 µM) with EMG2 pSHV-18, more than 64 µg/mL in the assay on EMG2 pNDM-1 and 0.25 µg/mL (≈ 0.457 µM) in the assay on EMG2 Wild-Type.
Take `CC1(C)S[C@@H]2[C@H](NC(=O)C(C(=O)O)c3ccccc3)C(=O)N2[C@H]1C(=O)O` (stereo partly shown) [carbenicillin]: the “susceptibility of EHEC strain” value in the assay with EHEC strain was “susceptible”. In the assay with EHEC, the “survival of EHEC-infected larvae, comparison with antibiotics” value is on record as “superior to ΦRGNeae treatment”.
As to `CC1(C)S[C@@H]2[C@H](NC(=O)[C@H](N)c3ccccc3)C(=O)N2[C@H]1C(=O)O` [AMP, ampicillin], the MIC is 64 µg/mL (≈ 183 µM) in the assay with EMG2 pSHV-18, 4 µg/mL (≈ 11.4 µM) in the assay on EMG2 gyrAD87G, more than 64 µg/mL with EMG2 pNDM-1 and 2 µg/mL (≈ 5.72 µM) with EMG2 Wild-Type.
For `C[C@@H](O)[C@H]1C(=O)N2C(C(=O)O)=C(SCCN=CN)C[C@H]12` [IPM, imipenem], the MIC in the assay with EMG2 pNDM-1 was found to be 32 µg/mL (≈ 107 µM); in the assay with EMG2 Wild-Type, 0.25 µg/mL (≈ 0.835 µM).

For the origin of these results see patent US10760065B2, “Tuning microbial populations with programmable nucleases” (priority 2013, dated 2020).
